In US11440887B2, “Substituted 1,2,3,4-tetrahydroquinolines as inhibitors of repair enzyme 8-oxoguanine deoxyribonucleic acid glycosylase activity” (The Board of Trustees of the Leland Stanford Junior …, priority 2017, dated 2022):

Molecular target: OGG1 (Homo sapiens (Human), UniProt O15527)
Assay: OGG1 inhibitor assay with fluorogenic OGR1 probe (base excision, initial rates)
Assay type: biochemical
Settings: for Enzyme activity, % of control at 2 μM: 2 μM compound; for Enzyme activity, % of control at 2 μM / Enzyme activity, % of control at 20 μM / Enzyme activity, % of control at 200 nM: ratio of initial rate slope (first 12 min) to no-compound control; for Enzyme activity, % of control at 20 μM: 20 μM compound; for IC50: initial rates method
Procedure: Methods: Synthesized compounds and hOGG1 (100 nM) were incubated in NEBuffer 4 (1×) with BSA (1×) at 37° C. (15 min) in 100 μL reaction volumes in a black 96-well plate. (See, e.g., Edwards, S. K., et al., ChemBioChem 2015, 16, 1637-1646, the disclosure of which is incorporated herein by reference.) After that, OGR1 (1.2 μM) was added to the reaction mixture. Fluorescence at 460 nm was measured on a Thermo Fluoroskan Ascent FL fluorescence plate reader (λex=355 nm). The slope of initial rate (12 min) was calculated, and % of control was used for inhibition activity. BSA, hOGG1 and NEBuffer 4 were purchased from New England Biolabs and used. UltraPure Distilled Water (Invitrogen) was purchased and used for the assay.

Sequence of OGG1 (O15527 whole entry): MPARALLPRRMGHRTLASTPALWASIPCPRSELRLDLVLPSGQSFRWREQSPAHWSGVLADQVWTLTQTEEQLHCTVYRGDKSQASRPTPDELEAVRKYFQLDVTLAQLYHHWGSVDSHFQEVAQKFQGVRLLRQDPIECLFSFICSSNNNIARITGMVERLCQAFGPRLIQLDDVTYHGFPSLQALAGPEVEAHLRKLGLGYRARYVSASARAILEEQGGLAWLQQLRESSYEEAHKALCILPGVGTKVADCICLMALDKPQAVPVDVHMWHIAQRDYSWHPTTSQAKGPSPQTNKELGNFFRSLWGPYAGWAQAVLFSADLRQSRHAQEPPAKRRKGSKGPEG

Row | SMILES | Enzyme activity, % of control at 2 μM | Enzyme activity, % of control at 20 μM | Enzyme activity, % of control at 200 nM (200 nM compound) | IC50 [nM] | inhibition of activity at 200 nM (200 nM compound)
1 | CCOc1ccc(S(=O)(=O)Nc2ccc3c(c2)N(C(=O)CC)CCC3)cc1 [Compound 2] | 51 ± 1.4 % of control | 3.7 ± 0.83 % of control |  |  | 
2 | CCOc1ccc(S(=O)(=O)Nc2ccc3c(c2)N(C(=O)Cc2ccccc2)CCC3)cc1 [Compound 3] | ≥100 % of control | 79 % of control |  |  | 
3 | CCOc1ccc(S(=O)(=O)Nc2ccc3c(c2)N(C(=O)CCOC)CCC3)cc1 [Compound 4] | 93 % of control | 51 % of control |  |  | 
4 | CCOc1ccc(S(=O)(=O)Nc2ccc3c(c2)N(C(=O)C(C)C)CCC3)cc1 [Compound 5] | 96 % of control | 52 % of control |  |  | 
5 | CCOc1ccc(S(=O)(=O)Nc2ccc3c(c2)N(C(=O)C(C)(C)C)CCC3)cc1 [Compound 6] |  | ≥100 % of control |  |  | 
6 | CCOc1ccc(S(=O)(=O)Nc2ccc3c(c2)N(C(=O)C2CC2)CCC3)cc1 [Compound 7] | 41 ± 1.7 % of control | 5.8 ± 1.9 % of control | 82 ± 12 % of control | 1100 | 
7 | CCOc1ccc(S(=O)(=O)Nc2ccc3c(c2)N(C(=O)C2CCC2)CCC3)cc1 [Compound 8] | 69 % of control | 33 % of control |  |  | 
8 | CCOc1ccc(S(=O)(=O)Nc2ccc3c(c2)N(S(=O)(=O)CC)CCC3)cc1 [Compound 9] | 96 % of control | 92 % of control |  |  | 
9 | CCOc1ccc(S(=O)(=O)Nc2ccc3c(c2)N(C(=O)NC2CC2)CCC3)cc1 [Compound 10] | 87 % of control | 77 % of control |  |  | 
10 | CCOc1ccc(S(=O)(=O)Nc2ccc3c(c2)N(CC2CC2)CCC3)cc1 [Compound 11] | ≥100 % of control | 83 % of control |  |  | 
11 | CCOc1ccc(S(=O)(=O)Nc2cccc(NC(C)=O)c2)cc1 [Compound 12] | 96 % of control | 70 % of control |  |  | 
12 | CCOc1ccc(S(=O)(=O)Nc2ccc3c(c2)N(C(=O)CC)CC3)cc1 [Compound 13] | 95 % of control | ≥100 % of control |  |  | 
13 | CCOc1ccc(S(=O)(=O)Nc2ccc3c(c2)N(C(=O)C2CC2)CCCC3)cc1 [Compound 14] | 76 % of control | 35 % of control |  |  | 
14 | CCOc1ccc(S(=O)(=O)Nc2ccc3c(c2)N(C(=O)C2CC2)CCO3)cc1 [Compound 15] | 90 % of control | 41 % of control |  |  | 
15 | CCOc1ccc(S(=O)(=O)Nc2cc3c(cc2OC)CCCN3C(=O)C2CC2)cc1 [Compound 16] | ≥100 % of control | 93 % of control |  |  | 
16 | CCOc1ccc(S(=O)(=O)Nc2ccc3c(c2)CN(C(=O)C2CC2)CC3)cc1 [Compound 17] | 94 % of control | 88 % of control |  |  | 
17 | CCOc1ccc(S(=O)(=O)N(O)c2ccc3c(c2)N(C(=O)C2CC2)CCC3)cc1 [Compound 18] | 79 % of control | 21 % of control | ≥100 % of control |  | 
18 | CCOc1ccc(S(=O)(=O)N(C)c2ccc3c(c2)N(C(=O)C2CC2)CCC3)cc1 [Compound 19] | 84 % of control | 79 % of control |  |  | 
19 | CCOc1ccc(C(=O)Nc2ccc3c(c2)N(C(=O)C2CC2)CCC3)cc1 [Compound 20] | ≥100 % of control | ≥100 % of control |  |  | 
20 | CCOc1ccc(NC(=O)Nc2ccc3c(c2)N(C(=O)C2CC2)CCC3)cc1 [Compound 21] | ≥100 % of control | ≥100 % of control |  |  | 

Row | SMILES | Enzyme activity, % of control at 2 μM | Enzyme activity, % of control at 20 μM | Enzyme activity, % of control at 200 nM (200 nM compound) | IC50 [nM] | inhibition of activity at 200 nM (200 nM compound)
21 | CCC(=O)N1CCCc2ccc(NS(=O)(=O)CC)cc21 [Compound 22] | 94 % of control | 74 % of control |  |  | 
22 | CCCc1ccc(S(=O)(=O)Nc2ccc3c(c2)N(C(=O)C2CC2)CCC3)cc1 [Compound 23] | 35 % of control | 14 % of control | 74 % of control |  | 
23 | CCCOc1ccc(S(=O)(=O)Nc2ccc3c(c2)N(C(=O)C2CC2)CCC3)cc1 [Compound 24] | 19 % of control |  | 95 % of control |  | 
24 | CCNc1ccc(S(=O)(=O)Nc2ccc3c(c2)N(C(=O)C2CC2)CCC3)cc1 [Compound 25] | 58 % of control | 10 % of control | ≥100 % of control |  | 
25 | CSc1ccc(S(=O)(=O)Nc2ccc3c(c2)N(C(=O)C2CC2)CCC3)cc1 [Compound 26] | 53 % of control | 3.6 % of control | 75 % of control |  | 
26 | CCOc1ccc(S(=O)(=O)Nc2ccc3c(c2)N(C(=O)C2CC2)CCC3)cc1C [Compound 27] | 71 % of control | 22 % of control |  |  | 
27 | O=C(C1CC1)N1CCCc2ccc(NS(=O)(=O)c3ccc(Oc4ccccc4)cc3)cc21 [Compound 28] | 41 ± 2.0 % of control | 8.3 % of control | ≥100 % of control | 1500 | 
28 | O=C(C1CC1)N1CCCc2ccc(NS(=O)(=O)c3ccc4oc5ccccc5c4c3)cc21 [Compound 29] | 82 % of control | 71 % of control |  |  | 
29 | O=C(C1CC1)N1CCCc2ccc(NS(=O)(=O)c3ccc(-c4ccccc4)cc3)cc21 [Compound 30] | 29 ± 7.0 % of control |  | 90 ± 6.2 % of control |  | 
30 | O=C(C1CC1)N1CCCc2ccc(NS(=O)(=O)c3ccc(C4CCCCC4)cc3)cc21 [Compound 31] | 25 % of control |  | 87 % of control |  | 
31 | O=C(C1CC1)N1CCCc2ccc(NS(=O)(=O)c3ccc(N4CCOCC4)cc3)cc21 [Compound 32] | 76 % of control |  | 84 % of control |  | 
32 | O=C(C1CC1)N1CCCc2ccc(NS(=O)(=O)c3ccc(-n4cccn4)cc3)cc21 [Compound 33] | 45 ± 1.3 % of control | 14 ± 3.2 % of control | 81 % of control |  | 
33 | O=C(C1CC1)N1CCCc2ccc(NS(=O)(=O)c3ccc(-c4cccnc4)cc3)cc21 [Compound 34] | 23 ± 1.5 % of control | 2.0 % of control | 61 ± 1.3 % of control | 270 | ca. 40%
34 | O=C(C1CC1)N1CCCc2ccc(NS(=O)(=O)c3ccc(-c4ccc(C(F)(F)F)cc4)cc3)cc21 [Compound 35] | 72 % of control |  | 97 % of control |  | 
35 | COc1ccc(-c2ccc(S(=O)(=O)Nc3ccc4c(c3)N(C(=O)C3CC3)CCC4)cc2)cc1 [Compound 36] | 31 % of control |  | 79 % of control |  | 
36 | COc1cccc(-c2ccc(S(=O)(=O)Nc3ccc4c(c3)N(C(=O)C3CC3)CCC4)cc2)c1 [Compound 37] | 13 % of control |  | 67 % of control |  | 
37 | CN(C)c1cccc(-c2ccc(S(=O)(=O)Nc3ccc4c(c3)N(C(=O)C3CC3)CCC4)cc2)c1 [Compound 38] |  |  | 70 % of control |  | 
38 | CNC(=O)c1cccc(-c2ccc(S(=O)(=O)Nc3ccc4c(c3)N(C(=O)C3CC3)CCC4)cc2)c1 [Compound 40] |  |  | 48 % of control |  | 
39 | NNC(=O)c1sc2cccc(Cl)c2c1Cl [Compound O8, reference compound] | 69 % of control | 45 % of control |  |  | 
